Laboratory results published in US20080019949A1, “DIFFERENTIATION OF STEM CELLS FROM UMBILICAL CORD MATRIX INTO […] CELLS” (UNIVERSITY OF KANSAS, priority 2006, published 2008).

Columns and labels:
[1] = tested on: differentiated and undifferentiated HUMCs; assay: Cellular uptake of Indocyanine Green (ICG); assay type: cell-based, human; conditions: 1 mg/mL ICG concentration
Method: Cellular uptake of Indocyanine Green (ICG.): ICG was dissolved to an initial concentration of 5 mg/mL in solvent. The solution was then diluted to 1 mg/mL in maturation media and added to the culture dish and incubated at 37° C. in a humidified incubator at 5% CO2 for 10-15 minutes. The cells were washed thoroughly with sterile PBS and then visualized under a light microscope. After examination, the PBS was then removed and maturation media was added and the cells incubated at 37° C. in a humidified incubator at 5% CO2 for ˜4-6 hours to confirm elimination of ICG.

[2] = tested on: differentiated HUCM cells (hepatocyte-like cells)
Method: RNA isolation and Reverse Transcription Polymerase Chain Reaction (RT-PCR.): RNA was isolated from cells on RNeasy Quick spin columns (Qiagen, Valencia, Calif.) and converted to cDNA using random hexamers and SuperScript II reverse transcriptase (Invitrogen, Carlsbad, Calif.). PCR was performed using a BioRad I-Cycler. Products were resolved by 2% agarose gel electrophoresis and visualized by ethidium bromide staining. Expression of numerous hepatocyte-specific genes was analyzed, including CK18, cytokeratin 18; HNF3-β, hepatocyte nuclear factor 3β; CK19, cytokeratin 19; AFP, alpha fetoprotein; Alb, albumin; and CYP2B6, cytochrome P450 2 family.
Cytochromes were induced by treatment with; Rifamicin (RIF), 20 um; Penobarbital (PB), 2 mM; forskolin, 50 uM; 8-Bromo-cAMP, 1 mM (Tocris, Ellisville, Mo.); and vehicle controls for 24-hour period. mRNA was then harvested and then analyzed by RT-PCR.

SMILES | adverse effects on cells [1] | expression of inducible markers (CAR, PXR, PGC-1, PEPCK, PPAR-γ, CYP3A4, HNF4α) [2] | CYP3A4 expression (RT-PCR) [2] | PXR expression (RT-PCR) [2]
CC1(C)C(/C=C/C=C/C=C/C=C2\N(CCCCS(=O)(=O)O)c3ccc4ccccc4c3C2(C)C)=[N+](CCCCS(=O)(=O)[O-])c2ccc3ccccc3c21 [ICG, Indocyanine Green] | no adverse effects were observed |  |  | 
C=C[C@@]1(C)CC(=O)[C@]2(O)[C@@]3(C)[C@@H](O)CCC(C)(C)[C@@H]3[C@H](O)[C@H](OC(C)=O)[C@@]2(C)O1 [forskolin] |  | showed a number of hepatocyte-inducible genes or an increase in expression levels |  | 
CCC1(c2ccccc2)C(=O)NC(=O)NC1=O [PB, phenobarbital] |  | showed a number of hepatocyte-inducible genes or an increase in expression levels | induced | induced
